The values below come from the NIST ThermoML archive (doi:10.1021/je034189g).

Numbers after ± are expanded uncertainties.

The conditions of this data set: Liquid; Ebulliometric method (Recirculating still).
Consider `COc1ccccc1` [anisole], for which the Normal boiling temperature is 153.62 ± 0.15 °C.

Consider `c1ccccc1` [benzene], for which the Normal boiling temperature was found to be 80.01 ± 0.15 °C.

For `C1CCCCC1` [cyclohexane], the Normal boiling temperature came to 80.63 ± 0.15 °C.

With `CCCCCO` [pentan-1-ol], the Normal boiling temperature worked out at 137.63 ± 0.15 °C.
